According to ChEMBL document CHEMBL1212760, “First isolation of the blaOXA-23 carbapenemase gene from an environmental Acinetobacter baumannii isolate” (2010):
Converted amounts (≈) assume the structure as drawn.

Each molecule was assayed on Acinetobacter baumannii (assay: Antimicrobial activity against Acinetobacter baumannii B9 containing carbapenemase blaOXA-23 gene assessed as growth inhibition by Etest method).
Type: functional

| Molecule | MIC |
| --- | --- |
| NCC[C@H](O)C(=O)N[C@@H]1C[C@H](N)[C@@H](O[C@H]2O[C@H](CN)[C@@H](O)[C@H](O)[C@H]2O)[C@H](O)[C@H]1O[C@H]1O[C@H](CO)[C@@H](O)[C@H](N)[C@H]1O [AMIKACIN] | 8 µg/mL (≈ 13.7 µM) |
| CC1(C)S[C@@H]2[C@H](NC(=O)[C@H](N)c3ccc(O)cc3)C(=O)N2[C@H]1C(=O)O [AMOXICILLIN] | > 256 µg/mL |
| C[C@H]1[C@H](NC(=O)/C(=N\OC(C)(C)C(=O)O)c2csc(N)n2)C(=O)N1S(=O)(=O)O [AZTREONAM] | 32 µg/mL (≈ 73.5 µM) |
| CO/N=C(\C(=O)N[C@@H]1C(=O)N2C(C(=O)[O-])=C(C[N+]3(C)CCCC3)CS[C@H]12)c1csc(N)n1 [CEFEPIME] | > 256 µg/mL |
| CO/N=C(\C(=O)N[C@@H]1C(=O)N2C(C(=O)O)=C(COC(C)=O)CS[C@H]12)c1csc(N)n1 [CEFOTAXIME] | > 256 µg/mL |
| CO/N=C(\C(=O)N[C@@H]1C(=O)N2C(C(=O)[O-])=C(C[n+]3cccc4c3CCC4)CS[C@H]12)c1csc(N)n1 [CEFPIROME] | > 256 µg/mL |
| CC(C)(O/N=C(\C(=O)N[C@@H]1C(=O)N2C(C(=O)[O-])=C(C[n+]3ccccc3)CS[C@H]12)c1csc(N)n1)C(=O)O [CEFTAZIDIME] | > 256 µg/mL |
| CO/N=C(\C(=O)N[C@@H]1C(=O)N2C(C(=O)O)=C(COC(N)=O)CS[C@H]12)c1ccco1 [CEFUROXIME] | > 256 µg/mL |
| CC(=O)OCC1=C(C(=O)O)N2C(=O)[C@@H](NC(=O)Cc3cccs3)[C@H]2SC1 [CEPHALOTHIN] | > 256 µg/mL |
| O=C(O)c1cn(C2CC2)c2cc(N3CCNCC3)c(F)cc2c1=O [CIPROFLOXACIN] | > 32 µg/mL |
| C[C@@H](O)[C@H]1C(=O)N2C(C(=O)O)=C(S[C@@H]3CN[C@H](C(=O)Nc4cccc(C(=O)O)c4)C3)[C@H](C)[C@H]12 [ERTAPENEM] | > 32 µg/mL |
| C[C@@H](O)[C@H]1C(=O)N2C(C(=O)O)=C(SCCNC=N)C[C@H]12 [IMIPENEM ANHYDROUS] | 48 µg/mL (≈ 160 µM) |
| C[C@@H](O)[C@H]1C(=O)N2C(C(=O)O)=C(S[C@@H]3CN[C@H](C(=O)N(C)C)C3)[C@H](C)[C@H]12 [MEROPENEM] | 24 µg/mL (≈ 62.6 µM) |
| CO[C@@]1(NC(=O)C(C(=O)O)c2ccc(O)cc2)C(=O)N2C(C(=O)O)=C(CSc3nnnn3C)CO[C@@H]21 (stereo partly specified) [MOXALACTAM] | > 256 µg/mL |
| CCn1cc(C(=O)O)c(=O)c2ccc(C)nc21 [NALIDIXIC ACID] | > 256 µg/mL |
| CCN[C@@H]1C[C@H](N)[C@@H](O[C@H]2OC(CN)=CC[C@H]2N)[C@H](O)[C@H]1O[C@H]1OC[C@](C)(O)[C@H](NC)[C@H]1O [NETILMICIN] | 8 µg/mL (≈ 16.8 µM) |
| CC1COc2c(N3CCN(C)CC3)c(F)cc3c(=O)c(C(=O)O)cn1c23 (stereo unspecified) [OFLOXACIN] | > 32 µg/mL |
| CCn1cc(C(=O)O)c(=O)c2cc(F)c(N3CCN(C)CC3)cc21 [PEFLOXACIN] | > 256 µg/mL |
| CCN1CCN(C(=O)N[C@@H](C(=O)N[C@@H]2C(=O)N3[C@@H]2SC(C)(C)[C@@H]3C(=O)O)c2ccccc2)C(=O)C1=O [PIPERACILLIN] | > 256 µg/mL |
| CC1(C)S[C@@H]2[C@H](NC(=O)[C@H](C(=O)O)c3ccsc3)C(=O)N2[C@H]1C(=O)O [TICARCILLIN] | > 256 µg/mL |
| GENTAMICIN | 8 µg/mL |
